According to patent US20250223270A1, “Sulfonamide Compounds and Use Thereof” (Taiho Pharmaceutical Co., Ltd., priority 2017, published 2025):
Values after ≈ are worked out from the molar mass of the structure shown. “Also recorded” adds a separate entry of the source.

Assays:
Format in all cases: physicochemical
[1] = Hygroscopicity, moisture adsorption/desorption test; settings: for hygroscopicity: moisture adsorption/desorption test, FIG. 8; for mass change in moisture adsorption/desorption test: relative humidity of 95%, 25° C.
Experimental: The moisture adsorption/desorption test was carried out according to the following conditions.
Approximately 10 to 15 mg of the sample was filled in a dedicated quartz holder, and the weight of each sample at each humidity was continuously measured and recorded under the following conditions.

[2] = Charging property (adhesion to spatula or glass bottle); settings: adhesion to a spatula or a glass bottle
[3] = Stability test, 40° C./75% RH, analogous substances by HPLC
Experimental: (§1) The amount of analogous substances in the sample solution was measured by HPLC analysis. The handling of the device including data processing was in accordance with the manual provided with the device. (i.e., Prominence-i). About 2 mg of the exemplary sample of the present invention was dissolve in 4 mL of mobile phase A/mobile phase B mixture (17:3), and the resulting mixture was used as sample solution. • Column: CAPCELL PAK ADME manufactured by Shiseido (4.6×150 mm, 3 μm) • UV detection: 220 nm • Column temperature: 40° C. • Column flow rate: 1.0 mL/min • Mobile phase: A; 5 mM phosphate buffer, pH 6.2/Acetonitrile (4:1) • B: acetonitrile • Injection volume: 5 μL • Sample cooler temperature: 5° C. • Collection time: 40 minutes
(§2) The solid stability of the exemplary sample of the present invention and the free form obtained above was tested after the sample was stored at 40° C./75% RH (closed and open condition) for 2 weeks or 4 weeks. Open condition means that the lid of the glass bottle was removed and covered with Kimwipe. • Measurement points: 2 weeks and 4 weeks • Storage amount: about 50 to 60 mg • Storage container: brown glass bottle

[4] = Optical purity stability by chiral HPLC; settings: 40° C./75% RH (closed and open condition), 24 hours
Experimental: The optical purity was also measured by the following HPLC condition • Detector: UV at 240 nm • Column: […] IE (4.6×250 mm, 5 μm)/Daicel corp. • Column temperature: 40° C. • Mobile phase: n-hexane/ethanol/ethanolamine/acetic acid (65:35:0.5:0.2) • Flow rate: 1.0 mL/min • Injection: 5 μL • Sample temperature: 5° C. • Time span of measurement: 40 min
Compound—RR, RS,SS: 0.05%
The optical purity was measured also with added 0.2% optical isomer.
The solid stability of the exemplary sample of the present invention and the free form obtained
above was tested before and after the sample was stored at 40° C./75% RH (closed and open condition) for 24 hours.

[5] = Solubility test, 37° C., 2 hours; settings: for Solubility: 2 hours
Experimental: About 15 mg of the exemplary sample of the present invention was added to 1 mL of each solvent and was swelled at 37° C. for 2 hours under light resistant condition. After centrifugation, each supernatant was filtered, and 0.7 mL of a mixture of water and acetonitrile (1:1) was added to 0.1 ml of the filtrate.
Following of mobile phase: Control the gradient by mixing the mobile phase A and B as directed in the following table below • Flow rate: 1.0 mL per minutes • Time span of measurement: For 12 minutes after injection

[6] = Solid stability test, 40° C./75% RH, 70° C., 80° C., by HPLC
Experimental: as §2, with “(open condition), 70° C. (closed)” for “(closed”, “80° C. (closed) after” for “open condition) for”, “Kimwipe, 70° C. and 80° C. (closed).” for “Kimwipe.”, “30” for “50 to 60”
as §1, with “6.5/Acetonitrile” for “6.2/Acetonitrile”

mass change in moisture adsorption/desorption test [1] | Chemical Purity (%) ([3]; 40° C./75% RH (Closed), 2 wks) | Total amount of analogous substances (%) ([3]; 40° C./75% RH (Closed), 2 wks) | Chemical Purity (%) ([3]; 40° C./75% RH (Closed), 4 wks) | Total amount of analogous substances (%) ([3]; 40° C./75% RH (Closed), 4 wks) | Chemical Purity (%) ([3]; 40° C./75% RH (Open), 2 wks) | Total amount of analogous substances (%) ([3]; 40° C./75% RH (Open), 2 wks) | Chemical Purity (%) ([3]; 40° C./75% RH (Open), 4 wks) | Total amount of analogous substances (%) ([3]; 40° C./75% RH (Open), 4 wks) | Chemical Purity (%) ([3]; Initial) | Total amount of analogous substances (%) ([3]; Initial) | change in the optical purity [4] | Chemical Purity (%) ([6]; 40° C. 75% RH (Open), 4wks) | Total amount of analogous substances (%) ([6]; 40° C. 75% RH (Open), 4wks) | Chemical Purity (%) ([6]; 70° C. (Closed), 2 wks) | Total amount of analogous substances (%) ([6]; 70° C. (Closed), 2 wks) | Chemical Purity (%) ([6]; 70° C. (Closed), 4 wks) | Total amount of analogous substances (%) ([6]; 70° C. (Closed), 4 wks) | Chemical Purity (%) ([6]; 80° C. (Closed), 2 wks) | Compound | charging property [2] | further results
about 0.1% | 98.67% | 1.33% | 98.62% | 1.38% | 98.67% | 1.33% | 98.60% | 1.40% | 98.67% | 1.33% | No significant change | 99.69% | 0.31% | 99.67% | 0.33% | 99.68% | 0.32% | 99.66% | Cc1ccc(F)c([C@@H](C)[C@H](NS(=O)(=O)c2ccc(Cl)cc2C(N)=O)c2n[nH]c(=O)o2)c1C [Exemplary Sample, 5-chloro-2-(N-((1S,2R)-2-(6-fluoro-2,3-dimethylphenyl)-1-(5-oxo-4,5-dihydro-1,3,4-oxadiazol-2-yl)propyl)sulfamoyl)benzamide] | weak charging property; also recorded: low charging property | hygroscopicity [1]: almost no hygroscopicity; Solubility ([5]; 0.5% HPMC, 37° C.): 130 µg/mL (≈ 269 µM); Solubility ([5]; Acetate buffer (50 mM, pH 4.0), 37° C.): 260 µg/mL (≈ 538 µM); Solubility ([5]; Second fluid for dissolution test, pH 6.8, 37° C.): 610 µg/mL (≈ 1260 µM); change on XRD pattern ([5]; after 2 hr solubility study): No significant change; Total amount of analogous substances (%) ([6]; 80° C. (Closed), 2 wks): 0.34%; Chemical Purity (%) ([6]; 80° C. (Closed), 4 wks): 99.66%; Total amount of analogous substances (%) ([6]; 80° C. (Closed), 4 wks): 0.34%; Chemical Purity (%) ([6]; Initial): 99.69%; Total amount of analogous substances (%) ([6]; Initial): 0.31%
about 3.8% | 98.42% | 1.58% | 98.16% | 1.84% | 98.35% | 1.65% | 98.14% | 1.86% | 98.49% | 1.51% | No significant change | 97.97% | 2.03% | 97.31% | 2.69% | 96.39% | 3.61% | 95.90% | Cc1ccc(F)c([C@@H](C)[C@H](NS(=O)(=O)c2ccc(Cl)cc2C(N)=O)c2n[nH]c(=O)o2)c1C [Comparative Example, 5-chloro-2-(N-((1S,2R)-2-(6-fluoro-2,3-dimethylphenyl)-1-(5-oxo-4,5-dihydro-1,3,4-oxadiazol-2-yl)propyl)sulfamoyl)benzamide] | high charging property | hygroscopicity ([1]; listed as free form): had hygroscopicity; charging property ([2]; listed as free form): high charging property; Total amount of analogous substances (%) ([6]; 80° C. (Closed), 2 wks): 4.10%; Chemical Purity (%) ([6]; 80° C. (Closed), 4 wks): 92.92%; Total amount of analogous substances (%) ([6]; 80° C. (Closed), 4 wks): 7.08%; Chemical Purity (%) ([6]; Initial): 98.33%; Total amount of analogous substances (%) ([6]; Initial): 1.67%
